One assay deals with T1, human Gal-3 (Homo sapiens, UniProt P17931).
T1 construct: made in house; host or cells: E. coli Rosetta 2(DE3)pLysS
Put plainly: Competitive ELISA-type assay: inhibition of Gal-3 binding to immobilized asialofetuin (ASF). Conditions: for Selectivity for Gal-3: IC50 for Gal-1/IC50 for Gal-3. Here is the method:
Microtiter plates (Nunc Immuno Sorb, ThermoFisher Scientific, USA) were coated with ASF (0.1 µM in PBS, pH 7.5, 50 µL/well) and incubated overnight. The wells were washed with 3×250 µL of PBS containing 0.05% Tween (repeated after each step). The wells were then blocked by 2% w/v BSA in PBS buffer (250 µL/well) for 1 h. Serial dilutions of the ligands (glycopolymers or oligosaccharides) in EPBS (2 mM EDTA in PBS) were incubated with Gal-1 or Gal-3 (1.25 µM final concentration) for 2 h. The residual bound galectin was labeled with anti-His antibody conjugated to horseradish peroxidase (Santa Cruz; 1:1000 dilution in PBS, 1 h). TMB One substrate solution (Kem-En-Tech, Denmark; 50 µL/well) was added, and the reactions were incubated until visible blue staining appeared (3–20 min). The reaction was stopped by adding 3 M HCl (50 µL per well), resulting in a color shift to yellow, which was determined spectrophotometrically by an absorbance microplate reader (Sunrise Tecan Group Ltd, CH). The intensity of the signal at 450 nm corresponded to the amount of galectin bound to the wells. Non-linear regression (dose–response inhibition-variable slope) of the sigmoidal curves was used to calculate the values of half-maximal inhibitory constants (IC50) from at least six independent experiments using GraphPad Prism 7 (GraphPad Software, USA).
For the affinity measurement, the competitive ELISA assay with ASF as an immobilized competitor ligand was employed.[51] […] The inhibitory potency of the prepared glycopolymers was compared to the respective monovalent standards (LN1-LN2-tBoc, LN2-LN2-tBoc, LDN-LN2-tBoc) to calculate their relative potencies (rp) for inhibition of Gal-3 (Table 1). Relative potency values thus disclose the extent of the so-called multivalency effect of the glycopolymer – the ability of a ligand bound to a multivalent carrier to get easier access and orientation to the lectin-binding site.[52]
For orientation: An ELISA detects its analyte on a solid surface through an enzyme-linked reagent.

Another assay deals with J774A.1 macrophages. The experiment in a line: Gal-3-induced apoptosis of J774A.1 macrophages, Annexin V flow cytometry. The format is cell-based, murine. Conditions: 10 µM Gal-3, 24 h, no glycopolymer. As for the experimental part:
For flow cytometry studies, cultured undifferentiated (without any LPS and cytokines) J774A.1 murine macrophages were seeded in a concentration of 10^5 cells/well of the 24-well plate. After 24 h of cultivation, cells were pretreated with the desired concentration of glycopolymers for 5 minutes and afterward treated with 10 μM Gal-3 for 24 h. After harvesting of cells, early and late apoptoses of Gal-3-treated J774A.1 cells in the presence or absence of glycopolymers were evaluated using eBioscience Annexin V apoptosis detection kit (Thermo Fisher Scientific). Flow cytometry was performed using FACS Canto II (BD Biosciences, Franklin Lakes, NJ, USA). Apoptotic half-maximal inhibitory concentrations (IC50) of individual glycopolymers were calculated by nonlinear regression of log(glycopolymer concentration) versus apoptosis response using GraphPad Prism 8 software (version 8.0.1; GraphPad Software, La Jolla, CA, USA).
Tumor-associated macrophages (TAMs) are defined as M1 or M2 subtypes, which differ in their roles in carcinogenesis.[56] Phenotypically M2 macrophages, which are usually more abundant inside tumors and seem to be mainly responsible for the spread of cancer,[57] are chemoattracted into the tumor mass by the Gal-3 gradient.[11] Therefore, we aimed to investigate the inhibitory potential of prepared glycopolymers towards Gal-3 in the context of monocytes and macrophages. […]
For orientation: A flow cytometer gives signals particle by particle.

Assay [1] has as its target T2, recombinant human Gal-3 biotinylated at the lysine of the N-terminal AVI-tag (human, UniProt P17931 1-250, biotin on the lysine of the AVI-tag (…)).
T2 construct: galectin-3, human; Gal-3-AVI construct in pET-Duet1; Held on streptavidin Dynabeads M-280 through the biotin; also called Gal-3-AVI; biotinylated Gal-3; source: E. coli BL21 (DE3) with birA biotin ligase, purified (Ni-NTA)
Put plainly: depletion from solution by coated magnetic beads, ELISA of the supernatant; biotinylated Gal-3 on Dynabeads M-280 Streptavidin; increasing amount of beads incubated with glycosylated IFNγ, 1 h, room temperature; beads separated, IFNγ left in the supernatant measured by ELISA. Conditions: both partners purified.

Where [2] appears, read: IC50 per glycan, Gal-3 1.25 µM, binding to immobilized ASF, read-out: IC50 [µM]/Glycan.

Where “and” joins values, the source holds several entries; their conditions need not be identical. Identical values can stand only once. Like-named read-outs stand apart in the source and are kept apart here.

T1 sequence (P17931 whole entry): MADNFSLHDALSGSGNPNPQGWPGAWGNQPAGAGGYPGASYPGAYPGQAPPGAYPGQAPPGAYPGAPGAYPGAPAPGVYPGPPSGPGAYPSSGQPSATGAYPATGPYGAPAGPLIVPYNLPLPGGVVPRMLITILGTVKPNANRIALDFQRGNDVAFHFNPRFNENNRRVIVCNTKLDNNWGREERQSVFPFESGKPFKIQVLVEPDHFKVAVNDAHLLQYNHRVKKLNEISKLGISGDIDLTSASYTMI
T2 sequence (P17931 whole entry): as above

Turning to `CC(=O)N[C@@H]1[C@@H](O)[C@H](O[C@@H]2O[C@H](CO)[C@H](O)[C@H](O[C@@H]3O[C@H](CO)[C@@H](O[C@@H]4O[C@H](CO)[C@H](O)[C@H](O)[C@H]4NC(C)=O)[C@H](O)[C@H]3NC(C)=O)[C@H]2O)[C@@H](CO)O[C@H]1NC(=S)NCCNC(=O)OC(C)(C)C` [Glycopolymer 6, (tert-Butoxycarbonylamino)ethylthioureidyl 2-Acetamido-2-Deoxy-β-D-Galactopyranosyl-(1→4)-2-Acetamido-2-Deoxy-β-D-Glucopyranosyl-(1→3)-β-D-Galactopyranosyl-(1→4)-2-Acetamido-2-Deoxy-β-D-Glucopyranoside], the “Selectivity for Gal-3” value on human Gal-3 is reported as 13. Besides, the IC50 on human Gal-3 (setting [2]) amounted to 7.4 ± 0.5 µM. In the case of “Gal-3: Recombinant human galectin-3, N-terminal His-tagged protein construct produced in E. coli; used to induce apoptosis”, the “apoptosis of J774A.1 cells induced by Gal-3” value in the assay with J774A.1 macrophages was 20.7 ± 0.8% and 15–25%. With `CC(=O)N[C@@H]1[C@@H](O)[C@H](O[C@@H]2O[C@H](CO)[C@H](O)[C@H](O[C@@H]3O[C@H](CO)[C@@H](O)[C@H](O[C@@H]4O[C@H](CO)[C@H](O)[C@H](O)[C@H]4O)[C@H]3NC(C)=O)[C@H]2O)[C@@H](CO)O[C@H]1NC(=S)NCCNC(=O)OC(C)(C)C` [Glycopolymer 4, (tert-Butoxycarbonylamino)ethylthioureidyl β-D-Galactopyranosyl-(1→3)-2-Acetamido-2-Deoxy-β-D-Glucopyranosyl-(1→3)-β-D-Galactopyranosyl-(1→4)-2-Acetamido-2-Deoxy-β-D-Glucopyranoside], the “Selectivity for Gal-3” value on human Gal-3 amounted to 17. In addition, the IC50 at human Gal-3 (setting [2]) turned out to be 27.1 ± 4.4 µM; on human Gal-3 (concentration required to inhibit Gal-3 binding to immobilized ASF by 50%, read-out: IC50), 27.1 ± 4.4 µM.

On to `CC(=O)N[C@@H]1[C@@H](O)[C@H](O[C@@H]2O[C@H](CO)[C@H](O)[C@H](O[C@@H]3O[C@H](CO)[C@@H](O[C@@H]4O[C@H](CO)[C@H](O)[C@H](O)[C@H]4O)[C@H](O)[C@H]3NC(C)=O)[C@H]2O)[C@@H](CO)O[C@H]1NC(=S)NCCNC(=O)OC(C)(C)C` [Glycopolymer 5, (tert-Butoxycarbonylamino)ethylthioureidyl β-D-Galactopyranosyl-(1→4)-2-Acetamido-2-Deoxy-β-D-Glucopyranosyl-(1→3)-β-D-Galactopyranosyl-(1→4)-2-Acetamido-2-Deoxy-β-D-Glucopyranoside], for which the “Selectivity for Gal-3” value on human Gal-3 worked out at 10. Moreover, the IC50 on human Gal-3 (setting [2]) is 10.2 ± 3.2 µM.

B1: glycosylated human IFNγ (natural protein, UniProt P01579 24-161, looked up)
chain: QDPYVKEAENLKKYFNAGHSDVADNGTLFLGILKNWKEESDRKIMQSQIVSFYFKLFKNFKDDQSIQKSVETIKEDMNVKFFNSNKKKRDDFEKLTNYSVTDLNVQRKAIHELIQVMAELSPAAKTGKRKRSQMLFRG
modifications: glycosylated
notes: interferon-gamma, human, glycosylated; also called interferon-gamma; INFγ; source: bought: Sigma-Aldrich
Turning to B1, in assay [1], the binding result is listed as “binds”.

Values taken from paper PMC12118576, “Selective Glycopolymer Inhibitors of Galectin-3: Supportive Anti-Cancer Agents Protecting Monocytes and Preserving Interferon-Gamma Function” (International Journal of Nanomedicine, 2025).
